ChEMBL document CHEMBL1201862, “PubChem BioAssay data set” (2004)
Activity calls are given as the source filed them.

Columns and labels:
Type in all cases: functional
[1] = target: Hexokinase HKDC1 (Homo sapiens, UniProt Q2TB90); experiment: activation of HKDC1 glucose phosphorylation – biochemical, W721R variant, dose response (AID 504730)
[2] = target: Hexokinase-1 (Homo sapiens, UniProt P19367); experiment: HK1 enzyme activation by HKDC1 hits – biochemical, selectivity assay for HKDC1 activator project, dose response (AID 504762)
Hexokinase-1, sequence (P19367 whole entry): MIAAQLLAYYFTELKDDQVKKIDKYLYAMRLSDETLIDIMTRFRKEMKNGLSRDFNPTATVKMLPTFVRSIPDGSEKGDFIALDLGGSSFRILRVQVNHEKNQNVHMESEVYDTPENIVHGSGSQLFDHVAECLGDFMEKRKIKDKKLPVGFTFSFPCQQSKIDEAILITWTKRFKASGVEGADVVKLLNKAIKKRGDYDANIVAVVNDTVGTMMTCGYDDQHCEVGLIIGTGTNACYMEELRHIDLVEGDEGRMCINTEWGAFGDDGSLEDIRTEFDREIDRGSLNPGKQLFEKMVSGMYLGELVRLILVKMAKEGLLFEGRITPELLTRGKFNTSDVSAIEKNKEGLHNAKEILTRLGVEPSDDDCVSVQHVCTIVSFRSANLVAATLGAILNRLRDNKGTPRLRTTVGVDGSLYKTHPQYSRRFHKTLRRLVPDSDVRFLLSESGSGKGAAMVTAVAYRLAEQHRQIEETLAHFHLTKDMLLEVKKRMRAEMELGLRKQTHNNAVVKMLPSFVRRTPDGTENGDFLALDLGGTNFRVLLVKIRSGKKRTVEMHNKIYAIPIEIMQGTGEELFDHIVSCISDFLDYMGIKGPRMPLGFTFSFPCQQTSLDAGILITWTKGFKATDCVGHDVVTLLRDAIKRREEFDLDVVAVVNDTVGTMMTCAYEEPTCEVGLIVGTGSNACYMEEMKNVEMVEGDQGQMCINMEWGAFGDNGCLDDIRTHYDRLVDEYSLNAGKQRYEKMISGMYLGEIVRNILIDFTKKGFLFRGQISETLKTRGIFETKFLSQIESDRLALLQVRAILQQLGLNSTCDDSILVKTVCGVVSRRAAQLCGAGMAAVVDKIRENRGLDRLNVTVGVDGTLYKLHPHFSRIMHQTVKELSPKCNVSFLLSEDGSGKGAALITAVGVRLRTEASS

[3] = target: T1, Mu-type opioid receptor (Homo sapiens, UniProt P35372); experiment: SAR Analysis of Antagonists of the MOR Receptor using an Image-Based Assay - Set 2. [Related pubchem assays (depositor defined):AID1777, AID1785, AID1786, AID1966, AID2133, AID2136, AID2284, AID2285, AID2420]
T1 sequence (P35372 whole entry): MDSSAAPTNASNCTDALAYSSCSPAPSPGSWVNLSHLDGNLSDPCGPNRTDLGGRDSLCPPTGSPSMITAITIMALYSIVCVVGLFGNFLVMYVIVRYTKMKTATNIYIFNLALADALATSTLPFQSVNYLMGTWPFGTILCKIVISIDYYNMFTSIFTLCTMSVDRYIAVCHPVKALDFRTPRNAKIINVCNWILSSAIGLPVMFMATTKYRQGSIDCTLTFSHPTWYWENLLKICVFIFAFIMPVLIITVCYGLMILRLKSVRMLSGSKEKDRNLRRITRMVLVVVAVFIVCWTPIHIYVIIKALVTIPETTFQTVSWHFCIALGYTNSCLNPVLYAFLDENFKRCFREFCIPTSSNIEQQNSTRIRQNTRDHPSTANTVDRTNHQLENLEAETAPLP

[4] = target: T2, Kappa-type opioid receptor (Homo sapiens, UniProt P41145); experiment: SAR analysis of Antagonists of the Kappa Opioid Receptor (KOR) using an Image-Based Assay - Set 2. [Related pubchem assays (depositor defined):AID1777, AID1785, AID1786, AID1966, AID2133, AID2136, AID2284, AID2285, AID2348]
T2 sequence (P41145 whole entry): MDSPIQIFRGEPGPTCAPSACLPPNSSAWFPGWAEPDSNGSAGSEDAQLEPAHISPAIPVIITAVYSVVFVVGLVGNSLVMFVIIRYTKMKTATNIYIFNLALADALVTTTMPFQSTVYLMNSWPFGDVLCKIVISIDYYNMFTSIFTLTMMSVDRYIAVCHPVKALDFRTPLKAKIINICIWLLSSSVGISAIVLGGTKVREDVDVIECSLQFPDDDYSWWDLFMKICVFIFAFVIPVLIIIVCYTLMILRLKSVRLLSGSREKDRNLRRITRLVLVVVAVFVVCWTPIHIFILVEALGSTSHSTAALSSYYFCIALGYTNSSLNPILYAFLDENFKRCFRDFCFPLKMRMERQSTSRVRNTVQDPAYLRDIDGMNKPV

[5] = target: T1, Mu-type opioid receptor; experiment: SAR Analysis of Agonists of the MOR Receptor using an Image-Based Assay - Set 2. [Related pubchem assays (depositor defined):AID1777, AID1785, AID1786, AID1966, AID2133, AID2136, AID2284, AID2285, AID2352]
[6] = target: T2, Kappa-type opioid receptor; experiment: SAR analysis of small molecule agonists of the kappa opioid receptor via a luminescent beta-arrestin assay - Set 2. [Related pubchem assays (depositor defined):AID1777, AID1785, AID1786, AID1966, AID2133, AID2136, AID2284, AID449737]
[7] = target: T3, Delta-type opioid receptor (Homo sapiens, UniProt P41143); experiment: SAR Analysis of Agonists of the DOR Receptor using an Image-Based Assay - Set 2. [Related pubchem assays (depositor defined):AID1777, AID1785, AID1786, AID1966, AID2133, AID2136, AID2284, AID2285, AID2370]
T3 sequence (P41143 whole entry): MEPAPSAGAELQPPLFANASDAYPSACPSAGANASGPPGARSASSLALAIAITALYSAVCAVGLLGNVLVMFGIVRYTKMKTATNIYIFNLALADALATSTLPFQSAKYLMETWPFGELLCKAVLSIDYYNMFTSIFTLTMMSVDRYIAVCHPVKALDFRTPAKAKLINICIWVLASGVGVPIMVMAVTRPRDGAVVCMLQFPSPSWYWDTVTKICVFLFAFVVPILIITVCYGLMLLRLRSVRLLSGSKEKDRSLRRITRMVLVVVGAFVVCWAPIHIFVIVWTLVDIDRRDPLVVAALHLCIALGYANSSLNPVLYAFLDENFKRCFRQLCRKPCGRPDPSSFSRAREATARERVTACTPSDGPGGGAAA

[8] = target: T3, Delta-type opioid receptor; experiment: SAR Analysis of Antagonists of the DOR Receptor using an Image-Based Assay - Set 2. [Related pubchem assays (depositor defined):AID1777, AID1785, AID1786, AID1966, AID2133, AID2136, AID2284, AID2285, AID2357]
[9] = target: T2, Kappa-type opioid receptor; experiment: SAR analysis of Agonists of the Kappa Opioid Receptor (KOR) using an Image-Based Assay - Set 2. [Related pubchem assays (depositor defined):AID1777, AID1786, AID1966, AID2133, AID2136, AID2284, AID2285, AID2359]
[10] = target: Ion channel NompC (Danio rerio, UniProt Q7T1G6); experiment: Dose response cell-based high-throughput screening assay for agonists of the transient receptor potential channel N1 (TRPN1). [Related pubchem assays (depositor defined):AID1424, AID1448]
Ion channel NompC, sequence (Q7T1G6 whole entry): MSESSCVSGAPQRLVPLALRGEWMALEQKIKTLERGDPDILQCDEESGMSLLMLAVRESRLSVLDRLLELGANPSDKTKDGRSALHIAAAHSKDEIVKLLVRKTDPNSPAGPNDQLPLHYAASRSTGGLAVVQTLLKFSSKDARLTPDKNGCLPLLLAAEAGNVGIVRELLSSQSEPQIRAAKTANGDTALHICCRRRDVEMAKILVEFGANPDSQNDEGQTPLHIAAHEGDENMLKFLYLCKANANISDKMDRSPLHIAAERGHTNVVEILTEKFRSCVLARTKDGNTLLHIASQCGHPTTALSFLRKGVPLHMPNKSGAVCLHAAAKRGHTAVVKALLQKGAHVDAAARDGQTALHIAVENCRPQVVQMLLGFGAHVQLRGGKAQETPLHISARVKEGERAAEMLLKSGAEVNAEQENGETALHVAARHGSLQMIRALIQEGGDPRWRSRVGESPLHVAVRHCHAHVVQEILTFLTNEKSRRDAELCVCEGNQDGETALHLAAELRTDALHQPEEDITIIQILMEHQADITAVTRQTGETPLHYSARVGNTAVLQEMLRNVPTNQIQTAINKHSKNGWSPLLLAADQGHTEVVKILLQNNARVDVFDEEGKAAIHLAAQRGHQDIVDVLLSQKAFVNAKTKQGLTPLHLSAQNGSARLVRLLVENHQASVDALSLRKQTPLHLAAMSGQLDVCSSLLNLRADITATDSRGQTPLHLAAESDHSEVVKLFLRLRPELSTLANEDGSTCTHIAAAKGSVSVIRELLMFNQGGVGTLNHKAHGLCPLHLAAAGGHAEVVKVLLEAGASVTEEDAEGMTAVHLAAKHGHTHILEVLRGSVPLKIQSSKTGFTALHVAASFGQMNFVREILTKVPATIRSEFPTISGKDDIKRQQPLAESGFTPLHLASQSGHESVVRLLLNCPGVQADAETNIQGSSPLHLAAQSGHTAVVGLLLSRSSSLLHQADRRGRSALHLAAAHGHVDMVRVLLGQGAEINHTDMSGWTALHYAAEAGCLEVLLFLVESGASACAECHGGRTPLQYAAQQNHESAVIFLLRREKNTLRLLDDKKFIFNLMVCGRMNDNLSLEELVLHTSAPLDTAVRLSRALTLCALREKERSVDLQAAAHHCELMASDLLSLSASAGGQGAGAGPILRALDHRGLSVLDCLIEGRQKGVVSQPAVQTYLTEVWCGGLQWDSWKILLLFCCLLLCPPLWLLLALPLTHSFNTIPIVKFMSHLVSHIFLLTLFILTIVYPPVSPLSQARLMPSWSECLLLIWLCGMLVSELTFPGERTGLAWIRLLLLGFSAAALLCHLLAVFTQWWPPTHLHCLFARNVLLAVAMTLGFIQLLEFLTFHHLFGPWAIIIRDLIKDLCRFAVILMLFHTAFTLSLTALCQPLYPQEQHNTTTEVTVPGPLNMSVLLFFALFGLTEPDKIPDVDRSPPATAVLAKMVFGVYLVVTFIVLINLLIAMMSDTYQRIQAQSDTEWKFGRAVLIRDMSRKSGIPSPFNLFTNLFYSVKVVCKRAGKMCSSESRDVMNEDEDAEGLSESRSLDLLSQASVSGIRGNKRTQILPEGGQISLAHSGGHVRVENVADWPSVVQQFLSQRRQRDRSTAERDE

[11] = target: Mucolipin-3 (Homo sapiens, UniProt Q8TDD5); experiment: Fluorescence counterscreen assay for […] agonists: dose response cell-based high-throughput screening assay to identify agonists of the transient receptor potential channel ML3 (TRPML3). [Related pubchem assays: 1424, 1448 ]
[12] = reduction of Shn3 3'UTR-driven luciferase in osteoblasts – cell-based, Clone20 osteoblasts, firefly luciferase, cherry-picked, dose response (AID 624132);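 note: firefly luciferase luminescence from reporter carrying the Shn3 3'UTR in osteoblasts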
[13] = loss of viability in HepG2 cells – cell-based, CellTiter-Glo, cherry-picked, cytotoxicity control for Shn3 inhibitor project, dose response (AID 624134)
[14] = non-specific 3'UTR reporter inhibition in Clone20-Shn3RL – cell-based, Renilla luciferase, cherry-picked, counter-screen for Shn3 inhibitor project, dose response (AID 624133)
[15] = target: T3, Delta-type opioid receptor; experiment: HTS Image-Based Screen for Antagonists of the DOR Receptor. [Related pubchem assays (depositor defined):AID1777, AID1785, AID1786, AID2133]
[16] = target: T1, Mu-type opioid receptor; experiment: HTS Image-Based Screen for Agonists of the MOR Receptor. [Related pubchem assays (depositor defined):AID1777, AID1785, AID1786, AID2133]
[17] = target: T3, Delta-type opioid receptor; experiment: HTS Image-Based Screen for Agonists of the DOR Receptor. [Related pubchem assays (depositor defined):AID1777, AID1786, AID2133]
[18] = target: T2, Kappa-type opioid receptor
[19] = target: T2, Kappa-type opioid receptor; remark: listed apart in the source
[20] = target: T2, Kappa-type opioid receptor; remark: listed apart in the source
[21] = target: T2, Kappa-type opioid receptor; experiment: SAR analysis of small molecule agonists of the kappa opioid receptor via a luminescent beta-arrestin assay. [Related pubchem assays (depositor defined):AID1777, AID1786, AID1966, AID2133, AID2136, AID2348, AID2352, AID2357, AID2359, AID2370, AID2420, AID2478, AID2491, AID2492, AID2493, AID2497, AID2498, AID2500, AID449737, AID488822, AID488842]
[22] = target: T1, Mu-type opioid receptor; experiment: mu opioid receptor activators, image-based, SAR follow-up (AID 2352)
[23] = target: T3, Delta-type opioid receptor; experiment: DOR agonists, SAR follow-up, image-based (AID 2370)
[24] = target: T2, Kappa-type opioid receptor; experiment: kappa opioid receptor blockers, image-based, SAR follow-up (AID 2348)
[25] = target: T1, Mu-type opioid receptor; experiment: mu opioid receptor blockers – image-based, SAR follow-up (AID 2420);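 note: compounds added before stimulation of receptor with agonist DAMGO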
[26] = target: T2, Kappa-type opioid receptor; experiment: kappa opioid receptor activation potency – imaging, image-based, SAR follow-up (AID 2359)
[27] = target: T3, Delta-type opioid receptor; experiment: delta opioid receptor blockers – image-based, SAR follow-up (AID 2357)

Hexokinase HKDC1, sequence (Q2TB90 whole entry): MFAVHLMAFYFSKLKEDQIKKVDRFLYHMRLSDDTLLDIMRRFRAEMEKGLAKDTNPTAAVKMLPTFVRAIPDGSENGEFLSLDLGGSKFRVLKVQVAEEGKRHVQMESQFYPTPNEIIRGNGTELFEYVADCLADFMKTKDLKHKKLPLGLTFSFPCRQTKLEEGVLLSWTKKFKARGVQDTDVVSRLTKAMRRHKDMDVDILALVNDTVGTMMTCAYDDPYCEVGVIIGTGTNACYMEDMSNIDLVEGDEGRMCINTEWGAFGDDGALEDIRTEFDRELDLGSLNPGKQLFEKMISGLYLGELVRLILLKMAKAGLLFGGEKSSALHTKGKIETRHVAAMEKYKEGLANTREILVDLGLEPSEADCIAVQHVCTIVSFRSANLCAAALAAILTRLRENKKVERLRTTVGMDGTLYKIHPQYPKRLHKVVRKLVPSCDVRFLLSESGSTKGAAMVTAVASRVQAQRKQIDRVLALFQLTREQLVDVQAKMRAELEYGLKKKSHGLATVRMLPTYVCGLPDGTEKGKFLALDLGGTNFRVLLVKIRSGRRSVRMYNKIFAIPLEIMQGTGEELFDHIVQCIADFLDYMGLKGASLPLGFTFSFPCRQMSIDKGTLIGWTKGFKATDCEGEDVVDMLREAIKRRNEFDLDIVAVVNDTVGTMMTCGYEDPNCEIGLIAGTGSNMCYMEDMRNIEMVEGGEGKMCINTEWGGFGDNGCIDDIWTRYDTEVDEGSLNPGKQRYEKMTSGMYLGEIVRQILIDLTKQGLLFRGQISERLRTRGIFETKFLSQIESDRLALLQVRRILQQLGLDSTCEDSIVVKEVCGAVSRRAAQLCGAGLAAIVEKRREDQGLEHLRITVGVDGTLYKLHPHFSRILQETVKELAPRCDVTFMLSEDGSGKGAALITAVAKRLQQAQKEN

CC12CCC(C(=O)N/N=C/c3ccc(O)cc3O)(OC1=O)C2(C)C (configuration not stated)
EC50 [1]: > 80 µM (inactive)
EC50 [2]: > 80 µM (inactive)

Fc1ccc(CSc2nnc(-c3ccccn3)n2Cc2cccs2)c(F)c1
IC50 [3]: > 32 µM (inactive)
IC50 [4]: > 32 µM (inactive)
EC50 [5]: > 32 µM (inactive)
EC50 [6]: 6.73 µM (active)
EC50 [7]: > 32 µM (inactive)
IC50 [8]: > 32 µM (inactive)
EC50 [9]: 5.68 µM (active)

Cc1ccc([N+](=O)[O-])cc1NC(=O)Nc1cccc(F)c1
EC50 [10]: > 29.9 µM (inactive)
EC50 [11]: > 29.9 µM (not active)
AC50 [12]: 2.21 µM (active)
AC50 [13]: 7.82 µM (active)
AC50 [14]: 2.13 µM (active)

O=C(c1ccccn1)N(Cc1cccs1)C1(C(=O)NC2CCCCC2)CCCCC1
IC50 [15]: > 32 µM (inactive)
EC50 [16]: > 32 µM (inactive)
EC50 [17]: > 32 µM (inactive)
EC50 [18]: < 0.5 µM
IC50 [19]: > 5 µM (inactive)
EC50 [20]: 0.103 µM
EC50 [21]: 0.116 µM (active)
EC50 [22]: > 32 µM (inactive)
EC50 [23]: > 32 µM (inactive)
IC50 [24]: > 32 µM (inactive)
IC50 [25]: > 32 µM (inactive)
EC50 [26]: < 0.06 µM (active)
IC50 [27]: > 32 µM (inactive)
